# Test results: patent US20250304567A1, “PYRROLIDIONE DERIVATIVES AS INHIBITORS OF NF KAPPA B INDUCING KINASE” (priority 2022, published 2025)
# How the values were obtained:
# [1] = biological target: Recombinant Human NF-kappaB-Inducing Kinase (NIK/MAP3K14) (Homo sapiens, UniProt Q99558); assay: Inhibition of auto-phosphorylation of recombinant human NIK/MAP3K14 activity (AlphaScreen); format: biochemical; settings: 5 μM ATP, 1 nM NIK, average if tested more than once
# Procedure, shortened: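 AlphaScreen detection of phospho-Ser176/180 after 1 nM GST-NIK auto-phosphorylates for 2 h at 25 °C with 5 μM ATP (50 mM Tris pH 7.5, 0.7% DMSO). IC50s come from sigmoidal curves of % inhibition against log dose, using enzyme-free, ATP-free low controls and full-activity high controls.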
# [2] = test system: p-IKKa levels in L363 (NIK translocated multiple myeloma) cells; assay: Effect of compounds on p-IKKa levels in L363 (NIK translocated multiple myeloma) cells (AlphaLISA SureFire Ultra p-IKKa Ser176/180); format: cell-based, human; settings: Homo sapiens, L-363, p-IKKa levels in L363 cells; average if tested more than once; read-out: Assay 2 IC50
# Procedure, shortened: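 Phospho-IKKa (Ser176/180) in lysates quantified by AlphaLISA after 6 h compound exposure, 11-point threefold dilutions, 0.3% DMSO. L363 cells were pre-stimulated overnight and assayed with 250 ng/ml BAFF and 10 μM MG132; % inhibition fitted sigmoidally for IC50, duplicate curves.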
# Sequence of Recombinant Human NF-kappaB-Inducing Kinase (NIK/MAP3K14) (Q99558 whole entry): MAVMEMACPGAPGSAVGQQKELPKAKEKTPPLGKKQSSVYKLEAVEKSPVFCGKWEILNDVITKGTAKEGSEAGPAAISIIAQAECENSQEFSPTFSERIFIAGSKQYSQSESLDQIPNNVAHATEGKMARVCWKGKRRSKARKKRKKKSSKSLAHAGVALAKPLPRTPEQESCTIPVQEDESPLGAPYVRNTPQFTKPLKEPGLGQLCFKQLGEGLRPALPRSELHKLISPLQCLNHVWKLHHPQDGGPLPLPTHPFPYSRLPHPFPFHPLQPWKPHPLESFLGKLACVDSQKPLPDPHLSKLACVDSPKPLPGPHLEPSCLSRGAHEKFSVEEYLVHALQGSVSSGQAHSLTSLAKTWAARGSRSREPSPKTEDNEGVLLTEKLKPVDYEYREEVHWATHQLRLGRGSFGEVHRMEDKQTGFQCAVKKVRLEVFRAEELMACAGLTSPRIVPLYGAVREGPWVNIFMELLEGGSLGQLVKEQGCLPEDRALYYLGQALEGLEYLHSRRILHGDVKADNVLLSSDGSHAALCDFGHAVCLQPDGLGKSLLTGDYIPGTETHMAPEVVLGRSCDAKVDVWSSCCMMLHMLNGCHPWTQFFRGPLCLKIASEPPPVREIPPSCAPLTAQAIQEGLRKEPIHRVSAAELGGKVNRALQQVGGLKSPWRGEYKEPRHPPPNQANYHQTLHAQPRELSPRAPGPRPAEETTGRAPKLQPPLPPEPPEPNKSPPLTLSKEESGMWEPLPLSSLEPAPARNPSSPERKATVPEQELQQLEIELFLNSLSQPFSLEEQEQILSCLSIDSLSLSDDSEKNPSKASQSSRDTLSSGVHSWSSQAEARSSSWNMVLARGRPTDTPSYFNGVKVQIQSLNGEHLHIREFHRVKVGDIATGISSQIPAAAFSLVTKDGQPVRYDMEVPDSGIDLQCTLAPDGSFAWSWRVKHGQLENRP
Compound,IC50 [1] [µM],IC50 [2] [µM]
"CCn1cc(Nc2nccc(-c3csc(-c4cccc([C@]5(O)CCN(C)C5=O)c4)n3)n2)c(C)n1 [Example 270, (R)-3-(3-(4-(2-((1-Ethyl-3-methyl-1H-pyrazol-4-yl)amino)pyrimidin-4-yl)thiazol-2-yl)phenyl)-3-hydroxy-1-methylpyrrolidin-2-one]",< 0.1,< 0.1
"CN1CC[C@@](O)(c2cccc(-c3nc(-c4ccnc(Nc5cnn(C(F)F)c5)n4)cs3)c2)C1=O [Example 271, (R)-3-(3-(4-(2-((1-(Difluoromethyl)-1H-pyrazol-4-yl)amino)pyrimidin-4-yl)thiazol-2-yl)phenyl)-3-hydroxy-1-methylpyrrolidin-2-one]",< 0.1,0.1 to 0.5
"CN1CC[C@@](O)(c2cccc(-c3nc(-c4ccnc(Nc5nc6ccccc6n5C)n4)cs3)c2)C1=O [Example 272, (R)-3-Hydroxy-1-methyl-3-(3-(4-(2-((1-methyl-1H-benzo[d]imidazol-2-yl)amino)pyrimidin-4-yl)thiazol-2-yl)phenyl)pyrrolidin-2-one]",> 0.501,> 0.501
"CN1CC[C@@](O)(c2cccc(-c3nc(-c4ccnc(Nc5cnn(C6CCOCC6)c5)n4)cs3)c2)C1=O [Example 273, (R)-3-Hydroxy-1-methyl-3-(3-(4-(2-((1-(tetrahydro-2H-pyran-4-yl)-1H-pyrazol-4-yl)amino)pyrimidin-4-yl)thiazol-2-yl)phenyl)pyrrolidin-2-one]",< 0.1,< 0.1
"Cc1cnoc1Nc1nccc(-c2csc(-c3cccc([C@]4(O)CCN(C)C4=O)c3)n2)n1 [Example 274, (R)-3-Hydroxy-1-methyl-3-(3-(4-(2-((4-methylisoxazol-5-yl)amino)pyrimidin-4-yl)thiazol-2-yl)phenyl)pyrrolidin-2-one]",> 0.501,> 0.501
"Cc1nocc1Nc1nccc(-c2csc(-c3cccc([C@]4(O)CCN(C)C4=O)c3)n2)n1 [Example 275, (R)-3-Hydroxy-1-methyl-3-(3-(4-(2-((3-methylisoxazol-4-yl)amino)pyrimidin-4-yl)thiazol-2-yl)phenyl)pyrrolidin-2-one]",< 0.1,< 0.1
"CC(C)n1cc(Nc2nccc(-c3csc(-c4cccc([C@]5(O)CCN(C)C5=O)c4)n3)n2)cn1 [Example 276, (R)-3-Hydroxy-3-(3-(4-(2-((1-isopropyl-1H-pyrazol-4-yl)amino)pyrimidin-4-yl)thiazol-2-yl)phenyl)-1-methylpyrrolidin-2-one]",< 0.1,< 0.1
"CN1CC[C@@](O)(c2cccc(-c3nc(-c4ccnc(Nc5cc6ccccn6n5)n4)cs3)c2)C1=O [Example 277, (R)-3-Hydroxy-1-methyl-3-(3-(4-(2-(pyrazolo[1,5-a]pyridin-2-ylamino)pyrimidin-4-yl)thiazol-2-yl)phenyl)pyrrolidin-2-one]",0.1 to 0.5,> 0.501
"CN1CC[C@@](O)(c2cccc(-c3nc(-c4ccnc(Nc5ccnn5CC(F)F)n4)cs3)c2)C1=O [Example 278, (R)-3-(3-(4-(2-((1-(2,2-Difluoroethyl)-1H-pyrazol-5-yl)amino)pyrimidin-4-yl)thiazol-2-yl)phenyl)-3-hydroxy-1-methylpyrrolidin-2-one]",0.1 to 0.5,> 0.501
"CN1CC[C@@](O)(c2cccc(-c3nc(-c4ccnc(Nc5cnc6ccc(F)cn56)n4)cs3)c2)C1=O [Example 279, (R)-3-(3-(4-(2-((6-Fluoroimidazo[1,2-a]pyridin-3-yl)amino)pyrimidin-4-yl)thiazol-2-yl)phenyl)-3-hydroxy-1-methylpyrrolidin-2-one]",> 0.501,> 0.501
"CN1CC[C@@](O)(c2cccc(-c3nc(-c4ccnc(Nc5cn(C)nc5C(F)(F)F)n4)cs3)c2)C1=O [Example 280, (R)-3-Hydroxy-1-methyl-3-(3-(4-(2-((1-methyl-3-(trifluoromethyl)-1H-pyrazol-4-yl)amino)pyrimidin-4-yl)thiazol-2-yl)phenyl)pyrrolidin-2-one]",< 0.1,0.1 to 0.5
"CN1CC[C@@](O)(c2cccc(-c3nc(-c4ccnc(Nc5cc(C(F)(F)F)nn5C)n4)cs3)c2)C1=O [Example 281, (R)-3-Hydroxy-1-methyl-3-(3-(4-(2-((1-methyl-3-(trifluoromethyl)-1H-pyrazol-5-yl)amino)pyrimidin-4-yl)thiazol-2-yl)phenyl)pyrrolidin-2-one]",< 0.1,> 0.501
"CN1CC[C@@](O)(c2cccc(-c3nc(-c4ccnc(Nc5cccnc5OC(F)F)n4)cs3)c2)C1=O [Example 282, (R)-3-(3-(4-(2-((2-(Difluoromethoxy)pyridin-3-yl)amino)pyrimidin-4-yl)thiazol-2-yl)phenyl)-3-hydroxy-1-methylpyrrolidin-2-one]",< 0.1,0.1 to 0.5
"CN1CC[C@@](O)(c2cccc(-c3nc(-c4ccnc(Nc5cn(C)nn5)n4)cs3)c2)C1=O [Example 283, (R)-3-hydroxy-1-methyl-3-(3-(4-(2-((1-methyl-1H-1,2,3-triazol-4-yl)amino)pyrimidin-4-yl)thiazol-2-yl)phenyl)pyrrolidin-2-one]",< 0.1,0.1 to 0.5
"CN1CC[C@@](O)(c2cccc(-c3nc(-c4ccnc(Nc5ccn(-c6ccccc6)n5)n4)cs3)c2)C1=O [Example 284, (R)-3-hydroxy-1-methyl-3-(3-(4-(2-((1-phenyl-1H-pyrazol-3-yl)amino)pyrimidin-4-yl)thiazol-2-yl)phenyl)pyrrolidin-2-one]",< 0.1,0.1 to 0.5
"CN1CC[C@@](O)(c2cccc(-c3nc(-c4ccnc(Nc5ccn(C(C)(C)C)n5)n4)cs3)c2)C1=O [Example 285, (R)-3-(3-(4-(2-((1-(tert-butyl)-1H-pyrazol-3-yl)amino)pyrimidin-4-yl)thiazol-2-yl)phenyl)-3-hydroxy-1-methylpyrrolidin-2-one]",< 0.1,0.1 to 0.5
"CN1CC[C@@](O)(c2cccc(-c3nc(-c4ccnc(Nc5ccn(CCO)n5)n4)cs3)c2)C1=O [Example 286, (R)-3-hydroxy-3-(3-(4-(2-((1-(2-hydroxyethyl)-1H-pyrazol-3-yl)amino)pyrimidin-4-yl)thiazol-2-yl)phenyl)-1-methylpyrrolidin-2-one]",< 0.1,0.1 to 0.5
"CN1CC[C@@](O)(c2cccc(-c3nc(-c4ccnc(Nc5cnn(CC6CC6)c5)n4)cs3)c2)C1=O [Example 287, (R)-3-(3-(4-(2-((1-(cyclopropylmethyl)-1H-pyrazol-4-yl)amino)pyrimidin-4-yl)thiazol-2-yl)phenyl)-3-hydroxy-1-methylpyrrolidin-2-one]",< 0.1,0.1 to 0.5
"CN1CC[C@@](O)(c2cccc(-c3nc(-c4ccnc(Nc5ccn(CC6CC6)n5)n4)cs3)c2)C1=O [Example 288, (R)-3-(3-(4-(2-((1-(cyclopropylmethyl)-1H-pyrazol-3-yl)amino)pyrimidin-4-yl)thiazol-2-yl)phenyl)-3-hydroxy-1-methylpyrrolidin-2-one]",< 0.1,0.1 to 0.5
"CN1CC[C@@](O)(c2cccc(-c3csc(-c4ccnc(Nc5ccn(CC6CC6)n5)n4)n3)c2)C1=O [Example 289, (R)-3-(3-(2-(2-((1-(cyclopropylmethyl)-1H-pyrazol-3-yl)amino)pyrimidin-4-yl)thiazol-4-yl)phenyl)-3-hydroxy-1-methylpyrrolidin-2-one]",> 0.501,> 0.501
